Results reported in ChEMBL document CHEMBL3352238, “Substituted indoles as selective protease activated receptor 4 (PAR-4) antagonists: Discovery and SAR of ML354” (Bioorg Med Chem Lett, 2014).

Columns and labels:
[1] = Intrinsic clearance in rat; format: ADME, organism-based; conditions: in vivo
[2] = Intrinsic clearance in human; format: ADME, organism-based; conditions: in vivo

CLint scaled [1] [mL/min/kg] | CLint scaled [2] [mL/min/kg] | SMILES
1090 | 75 | CCOC(=O)c1ccc(-c2nn(Cc3ccccc3)c3ccccc23)cc1
359 | 157 | Cn1c(CO)c(-c2ccccc2)c2cc([N+](=O)[O-])ccc21
1160 | 77 | CCOC(=O)c1ccc(-c2cn(Cc3ccccc3)c3ccccc23)cc1
